In patent US9096596B2 (Janssen Pharmaceutica NV, priority 2013, dated 2015):

Key:
P2X7 [1] = target: T1, P2X7 (Homo sapiens (Human), UniProt Q99572); assay: Ca2+ flux (FLIPR) in 1321N1 cells expressing recombinant human P2X7 channel; type: cell-based; details: 250 μM BzATP, Calcium-4 dye
Procedure, shortened: (§1)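 1321N1 cells stably expressing P2X7 were loaded with Calcium-4 dye for 60 min in HEPES-buffered saline (pH 7.40, 1 mM CaCl2, 1 mM MgCl2), then preincubated with test compounds for 30 min. Fluorescence change was read 180 s after agonist addition.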

P2X7 [2] = target: T1, P2X7; assay: P2X7 antagonism in human whole blood (IL-1β release, ELISA); type: cell-based; details: IL-1β release in human blood, LPS 30 ng/ml + Bz-ATP 1 mM
Procedure: Human blood was collected using a blood donor program. […] Cells were incubated for an additional 1.5 hours.

P2X7 [3] = target: T1, P2X7; assay: Radioligand binding, human P2X7-1321N1 cell membranes, tracer tritiated A-804598; details: human P2X7-1321N1 membranes; 1 hour at 4° C.; IC50 corrected for tracer concentration and affinity
Procedure: (§2) On the day of the experiment, cell membrane preparations were made according to standard published methods. […] The compound can be prepared as described in the literature. […] The assay was terminated by filtration (GF/B filters pre-soaked with 0.3% PEI) and washed with washing buffer (Tris-HCl 50 mM). The IC50 generated in the binding assay was corrected for tracer concentration and affinity of the tracer to derive at the affinity (Ki) of the test compounds.

P2X7 [4] = target: T1, P2X7; assay: P2X7 antagonism in human PBMCs (IL-1β release, ELISA); type: cell-based; details: test compound 10 μM, IL-1β release in human PBMCs, LPS 30 ng/ml + Bz-ATP 0.5 mM, read-out: PBMC 10 μM (% control)
Procedure: Human blood was collected using a blood donor program. […] Cells were incubated for an additional 1.5 hours. […] In Table 2, when the data cell has been left blank, it is intended to mean that the compound was not tested in that assay.

rat P2X7 [5] = target: T2, rat P2X7 (Rattus norvegicus (Rat), UniProt Q64663); assay: Ca2+ flux (FLIPR) in 1321N1 cells expressing recombinant rat P2X7 channel; type: cell-based; details: 250 μM BzATP, Calcium-4 dye
Procedure, shortened: as §1

rat P2X7 [6] = target: T2, rat P2X7; assay: Radioligand binding, rat P2X7-1321N1 cell membranes, tracer tritiated A-804598; details: rat P2X7-1321N1 membranes; 1 hour at 4° C.; IC50 corrected for tracer concentration and affinity
Procedure: as §2

T1 sequence (Q99572 whole entry): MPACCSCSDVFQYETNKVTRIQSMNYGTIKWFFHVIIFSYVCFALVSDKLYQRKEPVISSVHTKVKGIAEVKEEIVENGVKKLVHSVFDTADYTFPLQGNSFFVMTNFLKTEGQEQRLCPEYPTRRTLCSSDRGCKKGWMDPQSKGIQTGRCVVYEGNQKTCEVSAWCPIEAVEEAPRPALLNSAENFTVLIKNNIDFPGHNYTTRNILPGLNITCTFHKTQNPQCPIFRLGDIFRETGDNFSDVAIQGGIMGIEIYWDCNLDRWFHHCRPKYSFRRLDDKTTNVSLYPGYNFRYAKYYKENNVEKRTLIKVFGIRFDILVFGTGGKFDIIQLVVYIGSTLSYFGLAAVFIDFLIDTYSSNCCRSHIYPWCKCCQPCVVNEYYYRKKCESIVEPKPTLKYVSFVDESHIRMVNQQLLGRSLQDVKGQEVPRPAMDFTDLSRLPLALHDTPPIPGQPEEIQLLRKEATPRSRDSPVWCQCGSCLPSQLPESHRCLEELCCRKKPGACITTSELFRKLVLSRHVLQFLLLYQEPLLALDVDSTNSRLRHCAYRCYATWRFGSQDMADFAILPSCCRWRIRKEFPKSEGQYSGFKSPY
T2 sequence (Q64663 whole entry): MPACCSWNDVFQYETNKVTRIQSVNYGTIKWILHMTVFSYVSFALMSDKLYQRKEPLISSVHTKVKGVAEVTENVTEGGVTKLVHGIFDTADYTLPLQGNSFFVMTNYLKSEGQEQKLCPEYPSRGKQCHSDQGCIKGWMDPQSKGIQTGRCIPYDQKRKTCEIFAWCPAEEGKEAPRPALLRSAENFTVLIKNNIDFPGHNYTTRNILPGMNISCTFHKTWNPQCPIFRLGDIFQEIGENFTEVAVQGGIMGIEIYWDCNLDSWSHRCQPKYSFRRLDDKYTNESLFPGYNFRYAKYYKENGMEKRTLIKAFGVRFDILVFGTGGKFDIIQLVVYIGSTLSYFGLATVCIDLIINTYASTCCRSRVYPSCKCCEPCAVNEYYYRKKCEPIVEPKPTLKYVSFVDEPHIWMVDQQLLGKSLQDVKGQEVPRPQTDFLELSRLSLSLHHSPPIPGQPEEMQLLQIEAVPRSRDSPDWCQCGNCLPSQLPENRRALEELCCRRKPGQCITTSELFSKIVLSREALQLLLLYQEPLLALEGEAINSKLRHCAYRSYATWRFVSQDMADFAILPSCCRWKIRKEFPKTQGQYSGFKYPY

SMILES: O=C(c1ccc(Cl)c(F)c1Cl)N1CCc2c(ncnc2-c2ccn[nH]2)C1 [Example 20, 7-[(2,4-Dichloro-3-fluorophenyl)carbonyl]-4-(1H-pyrazol-5-yl)-5,6,7,8-tetrahydropyrido[3,4-d]pyrimidine]
- IC50 (P2X7 [1]): 5.9 nM
- IC50 (P2X7 [2]): 1230 nM
- Ki (P2X7 [3]): 25.1 nM
- remaining activity at 10 µM (P2X7 [4]): -0.2%
- IC50 (rat P2X7 [5]): 338 nM
- Ki (rat P2X7 [6]): 3.5 nM
